Assay results from patent publication US12174198B2, “Methods of characterizing condensate-associated characteristics of compounds and uses thereof” (Dewpoint Therapeutics, Inc., priority 2019, dated 2024).

Legend:
Assay type in all cases: physicochemical
FUS-SNAP condensates = target: T1, FUS-SNAP condensates (Homo sapiens, UniProt P35637); assay: Fluorescence imaging of dye partitioning in FUS-SNAP condensates (I-in, I-out); conditions: for Ratio of intensity inside:outside FUS-SNAP Condensates Day 1 / Ratio of intensity inside:outside FUS-SNAP Condensates Day 2 / Ratio of intensity inside:outside FUS-SNAP Condensates Average: I-in:I-out; for Ratio of intensity inside:outside FUS-SNAP Condensates Day 1 / Ratio of intensity inside:outside FUS-SNAP Condensates Day 2 / Ratio of intensity inside:outside FUS-SNAP Condensates Average / Intensity Inside with Dye Average / Intensity Inside with Dye 1 / Intensity Inside with Dye 2 / Intensity Inside with Dye 3 / Intensity Outside with Dye Average / Intensity Outside with Dye 1 / Intensity Outside with Dye 2 / Intensity Outside with Dye 3: 10 μM dye; for Ratio of intensity inside:outside FUS-SNAP Condensates Average: average of two days; for Intensity Inside with Dye Average / Intensity Inside with Dye 1 / Intensity Inside with Dye 2 / Intensity Inside with Dye 3 / Intensity Inside Dye-No Dye: inside FUS-SNAP condensate; for Intensity Inside with Dye Average / Intensity Inside with Dye 1 / Intensity Inside with Dye 2 / Intensity Inside with Dye 3 / Intensity Outside with Dye Average / Intensity Outside with Dye 1 / Intensity Outside with Dye 2 / Intensity Outside with Dye 3: 5 μM protein; for Intensity Inside with Dye Average / Intensity Outside with Dye Average: average of three images; for Intensity Inside with Dye Average / Intensity Inside with Dye 1 / Intensity Inside with Dye 2 / Intensity Inside with Dye 3 / Intensity Inside Dye-No Dye / Intensity Outside with Dye Average / Intensity Outside with Dye 1 / Intensity Outside with Dye 2 / Intensity Outside with Dye 3 / Intensity Outside (Dye-No Dye): one day of experiments; for Intensity Inside with Dye 1 / Intensity Outside with Dye 1: image 1; for Intensity Inside with Dye 2 / Intensity Outside with Dye 2: image 2; for Intensity Inside with Dye 3 / Intensity Outside with Dye 3: image 3; for Intensity Inside Dye-No Dye / Intensity Outside (Dye-No Dye): background corrected; for Intensity Outside with Dye Average / Intensity Outside with Dye 1 / Intensity Outside with Dye 2 / Intensity Outside with Dye 3 / Intensity Outside (Dye-No Dye): outside FUS-SNAP condensate
T1 sequence (P35637 1-526): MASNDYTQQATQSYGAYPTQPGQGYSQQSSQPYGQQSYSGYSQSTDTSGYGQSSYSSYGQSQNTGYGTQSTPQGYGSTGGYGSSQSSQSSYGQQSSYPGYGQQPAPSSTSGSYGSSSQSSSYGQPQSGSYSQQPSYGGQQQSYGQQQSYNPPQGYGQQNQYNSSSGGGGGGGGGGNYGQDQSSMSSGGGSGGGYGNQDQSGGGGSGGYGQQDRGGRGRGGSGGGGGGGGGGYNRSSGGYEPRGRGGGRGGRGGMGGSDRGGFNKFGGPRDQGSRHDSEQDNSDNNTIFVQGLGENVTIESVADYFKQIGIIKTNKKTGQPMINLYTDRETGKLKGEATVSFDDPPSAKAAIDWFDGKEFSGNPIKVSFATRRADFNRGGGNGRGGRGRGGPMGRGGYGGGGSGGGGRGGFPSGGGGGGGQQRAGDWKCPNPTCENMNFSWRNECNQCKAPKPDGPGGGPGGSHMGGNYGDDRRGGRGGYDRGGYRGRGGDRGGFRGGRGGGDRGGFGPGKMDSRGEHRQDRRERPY
Description: (§1) All dye-stocks were stored as 1 mM solutions in 100% DMSO. The dyes were dissolved in dilution buffer (DB: 14.7 mM Tris, pH 7.25, 1 mM DTT) to yield 11.765 μM dye in 1.1765 DMSO. 17 μl of dye was distributed in a 384 well non-binding plate (Greiner).
(§2) Either SNAP-tagged FUS protein or tag-free PGL-3 protein was thawed at room temperature for at least 10 min, and the buffer was exchanged to partitioning buffer (PB: 50 mM Tris pH 7.25, 500 mM KCl, 5% Glycerol, and 1 mM DTT). The protein was then diluted to 33.3 μM in PB. 3 μl of protein solution were added to the 384 well plate to initiate phase separation, yielding 20 μl of 5 μM protein and 10 μM dye in 75 mM KCl, 0.75% Glycerol, 20 mM Tris, 1 mM DTT, and 1% DMSO or for no dye control reactions, 20 μl of 5 μM protein in 75 mM KCl, 0.75% Glycerol, 20 mM Tris, 1 mM DTT.
(§3) A spinning disk confocal microscope was used to acquire images of the samples. A 60×oil high-NA objective lens was used to capture the condensate droplets. The laser power was set to 20% and the exposure times were adjusted to the fluorescence emission intensity specific for each dye. Exposure times ranged from 1-1000 ms. Appropriate filter settings were used, matching the excitation and emission spectra of the respective dyes. Three images per well were taken. The background signal of protein droplets in the absence of dye was recorded for all applied imaging conditions.
(§4) Fluorescence intensity was measured inside one exemplary target condensate (Intensity inside, I-in) per image and in a region next to the exemplary target condensate (Intensity outside, I-out) by hand using the image analysis software Fiji. An example depicting the regions measured is shown FIG. 2A. Three I-in and three I-out values were measured in total for each dye in each experiment and were averaged. The measured I-in and I-out values for FUS-SNAP condensates on one day of experiments are shown in Table 2 and Table 3, respectively. The measured I-in and I-out values for PGL-3 condensates on one day of experiments are shown in Table 4 and Table 5, respectively. All values were background corrected, based on the background images (no dye controls) taken with the same microscope conditions.
(§5) The ratios of the average intensity measured in the target condensates and outside of the target condensates were calculated by dividing I-in by I-out, although dividing I-out by I-in could also have been used. The I-in:I-out ratios determined from the two different days of experiments were then averaged. The average I-in:I-out ratios for FUS-SNAP condensates are shown in FIG. 3 and the average I-in:I-out ratios for PGL-3 condensates are shown in FIG. 4. The standard deviation between the two experiments is represented by the error bars in FIG. 3 and FIG. 4.

PGL-3 condensates = target: T2, PGL-3 condensates (Caenorhabditis elegans, UniProt G5EBV6); assay: Fluorescence imaging of dye partitioning in PGL-3 condensates (I-in, I-out); conditions: for Intensity Inside with Dye Average / Intensity Inside with Dye 1 / Intensity Inside with Dye 2 / Intensity Inside with Dye 3 / Intensity Inside Dye-No Dye: inside PGL-3 condensate; for Intensity Inside with Dye Average / Intensity Inside with Dye 1 / Intensity Inside with Dye 2 / Intensity Inside with Dye 3 / Intensity Outside with Dye Average / Intensity Outside with Dye 1 / Intensity Outside with Dye 2 / Intensity Outside with Dye 3: 5 μM protein; for Intensity Inside with Dye Average / Intensity Outside with Dye Average: average of three images; for Intensity Inside with Dye Average / Intensity Inside with Dye 1 / Intensity Inside with Dye 2 / Intensity Inside with Dye 3 / Intensity Inside Dye-No Dye / Intensity Outside with Dye Average / Intensity Outside with Dye 1 / Intensity Outside with Dye 2 / Intensity Outside with Dye 3 / Intensity Outside (Dye-No Dye): one day of experiments; for Intensity Inside with Dye 1 / Intensity Outside with Dye 1: image 1; for Intensity Inside with Dye 2 / Intensity Outside with Dye 2: image 2; for Intensity Inside with Dye 3 / Intensity Outside with Dye 3: image 3; for Intensity Inside Dye-No Dye / Intensity Outside (Dye-No Dye): background corrected; for Intensity Outside with Dye Average / Intensity Outside with Dye 1 / Intensity Outside with Dye 2 / Intensity Outside with Dye 3 / Intensity Outside (Dye-No Dye): outside PGL-3 condensate
T2 sequence (G5EBV6 1-693): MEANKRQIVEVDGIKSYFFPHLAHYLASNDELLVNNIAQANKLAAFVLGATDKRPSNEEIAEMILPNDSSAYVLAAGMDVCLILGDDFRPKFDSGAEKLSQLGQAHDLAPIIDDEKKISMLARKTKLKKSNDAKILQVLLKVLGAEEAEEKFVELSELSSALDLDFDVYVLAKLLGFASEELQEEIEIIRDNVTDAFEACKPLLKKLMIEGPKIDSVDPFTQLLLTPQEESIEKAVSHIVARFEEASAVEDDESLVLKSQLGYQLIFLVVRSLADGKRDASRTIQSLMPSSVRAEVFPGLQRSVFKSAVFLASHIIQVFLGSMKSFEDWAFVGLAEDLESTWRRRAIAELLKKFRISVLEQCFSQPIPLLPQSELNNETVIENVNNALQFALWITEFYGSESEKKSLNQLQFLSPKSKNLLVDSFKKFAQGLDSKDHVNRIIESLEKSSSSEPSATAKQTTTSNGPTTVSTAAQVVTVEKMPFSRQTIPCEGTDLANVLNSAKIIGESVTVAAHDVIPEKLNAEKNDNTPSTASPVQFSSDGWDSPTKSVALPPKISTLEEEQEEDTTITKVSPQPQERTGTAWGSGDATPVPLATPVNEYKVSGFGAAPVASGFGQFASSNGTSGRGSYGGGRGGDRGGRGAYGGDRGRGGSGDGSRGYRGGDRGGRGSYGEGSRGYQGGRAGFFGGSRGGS
Description: as §1, §2, §3, §4, §5

[1] = tested on: FUS-SNAP condensates versus PGL-3 condensates; assay: Condensate preference: ratio of FUS-SNAP I-in:I-out to PGL-3 I-in:I-out; conditions: average FUS-SNAP I-in:I-out divided by average PGL-3 I-in:I-out
Description: as §5

Row | Ratio of intensity inside:outside FUS-SNAP Condensates Day 1 (FUS-SNAP condensates) | Intensity Inside with Dye Average (FUS-SNAP condensates) | Intensity Inside with Dye 1 (FUS-SNAP condensates) | Intensity Inside with Dye 2 (FUS-SNAP condensates) | Intensity Inside with Dye 3 (FUS-SNAP condensates) | Intensity Inside Dye-No Dye (FUS-SNAP condensates) | Intensity Outside with Dye Average (FUS-SNAP condensates) | Intensity Outside with Dye 1 (FUS-SNAP condensates) | Intensity Outside with Dye 2 (FUS-SNAP condensates) | Intensity Outside with Dye 3 (FUS-SNAP condensates) | Intensity Outside (Dye-No Dye) (FUS-SNAP condensates) | Ratio of intensity inside:outside PGL-3 Condensates Day 2 (PGL-3 condensates; I-in:I-out, 10 μM dye) | Intensity Inside with Dye Average (PGL-3 condensates; 10 μM dye) | Intensity Inside with Dye 1 (PGL-3 condensates; 10 μM dye) | Intensity Inside with Dye 2 (PGL-3 condensates; 10 μM dye) | Intensity Inside with Dye 3 (PGL-3 condensates; 10 μM dye) | Intensity Inside Dye-No Dye (PGL-3 condensates) | Intensity Outside with Dye Average (PGL-3 condensates; 10 μM dye) | Intensity Outside with Dye 1 (PGL-3 condensates; 10 μM dye) | Intensity Outside with Dye 2 (PGL-3 condensates; 10 μM dye) | Compound | other results
1 | 1.7 | 5354.9 | 5285.1 | 5631.6 | 5148.0 | 5219.7 | 3178.8 | 3064.0 | 3267.0 | 3205.5 | 3074.8 | 1.0 | 3538.6 | 3527.5 | 3608.1 | 3480.3 | 3392.1 | 3496.8 | 3491.4 | 3551.4 | 6-[Fluorescein-5(6)-carboxamido]-hexanoic acid [Dye 8] | Ratio of intensity inside:outside FUS-SNAP Condensates Day 2 (FUS-SNAP condensates): 1.6; Ratio of intensity inside:outside FUS-SNAP Condensates Average (FUS-SNAP condensates): 1.6; Ratio of intensity inside:outside PGL-3 Condensates Day 1 (PGL-3 condensates; I-in:I-out, 10 μM dye): 1.0; Ratio of intensity inside:outside PGL-3 Condensates Average (PGL-3 condensates; I-in:I-out, average of two days, 10 μM dye): 1.0; Intensity Outside with Dye 3 (PGL-3 condensates; 10 μM dye): 3447.6; Intensity Outside (Dye-No Dye) (PGL-3 condensates): 3391.4; Ratio of FUS-SNAP:PGL-3 [1]: 1.6
2 | 1.9 | 6034.1 | 5836.4 | 6036.1 | 6229.9 | 1821.5 | 1485.0 | 1487.5 | 1414.8 | 1552.6 | 934.8 | −0.4 | 828.6 | 824.1 | 801.2 | 860.4 | 231.3 | 269.2 | 269.6 | 264.9 | CC(=O)Oc1ccc2c(c1)Oc1cc(OC(C)=O)ccc1C21OC(=O)c2ccccc21 [Dye 9, Fluorescein diacetate] | Ratio of intensity inside:outside FUS-SNAP Condensates Day 2 (FUS-SNAP condensates): 1.5; Ratio of intensity inside:outside FUS-SNAP Condensates Average (FUS-SNAP condensates): 1.7; Ratio of intensity inside:outside PGL-3 Condensates Day 1 (PGL-3 condensates; I-in:I-out, 10 μM dye): 2.2; Intensity Outside with Dye 3 (PGL-3 condensates; 10 μM dye): 273.2; Intensity Outside (Dye-No Dye) (PGL-3 condensates): 106.3
3 | −2.3 | 478.0 | 456.2 | 508.6 | 469.3 | −19.5 | 148.6 | 150.1 | 142.8 | 152.9 | 8.5 | 1.9 | 690.1 | 689.4 | 656.9 | 723.9 | 92.8 | 206.4 | 208.4 | 203.2 | O=C1OC2(c3ccc(O[C@@H]4O[C@H](CO)[C@H](O)[C@H](O)[C@H]4O)cc3Oc3cc(O[C@@H]4O[C@H](CO)[C@H](O)[C@H](O)[C@H]4O)ccc32)c2ccccc21 [Dye 12, Fluorescein di(β-D-galacto-pyranoside)] | Ratio of intensity inside:outside PGL-3 Condensates Day 1 (PGL-3 condensates; I-in:I-out, 10 μM dye): 2.1; Intensity Outside with Dye 3 (PGL-3 condensates; 10 μM dye): 207.7; Intensity Outside (Dye-No Dye) (PGL-3 condensates): 43.5
4 | 70.8 | 3480.0 | 3084.2 | 3756.7 | 3599.3 | −732.6 | 539.8 | 559.0 | 527.6 | 532.7 | −10.3 | 3.3 | 6487.9 | 6831.9 | 6829.0 | 5802.8 | 1228.1 | 1263.8 | 1289.1 | 1266.2 | CC/N=c1/cc2oc3cc(NCC)c(C)cc3c(-c3ccccc3C(=O)NCCOCCOCCN)c-2cc1C.O=C(O)C(F)(F)F [Dye 15, N-(8-Amino-3,6-dioxaoctyl)-rhodamine 6G-amide bis(trifluoroacetate)] | Intensity Outside with Dye 3 (PGL-3 condensates; 10 μM dye): 1236.3; Intensity Outside (Dye-No Dye) (PGL-3 condensates): 555.7
